Test results as given in US9533975B2, “Dual-action, unnatural proline-rich peptides as antibiotic agents and methods thereof” (Purdue Research Foundation, priority 2014, dated 2017).

Columns and labels:
[1] = tested on: human red blood cells (hRBCs); conditions: at 5 'LIM
in vitro = conditions: human

In the case of `CC[C@H](C)[C@H](NC(=O)CN)C(=O)NCC(=O)N[C@@H](C)C(=O)N[C@H](C(=O)N[C@@H](CC(C)C)C(=O)N[C@@H](CCCCN)C(=O)N[C@H](C(=O)N[C@@H](CC(C)C)C(=O)N[C@H](C(=O)N[C@H](C(=O)NCC(=O)N[C@@H](CC(C)C)C(=O)N1CCC[C@H]1C(=O)N[C@@H](C)C(=O)N[C@@H](CC(C)C)C(=O)N[C@H](C(=O)N[C@@H](CO)C(=O)N[C@@H](Cc1c[nH]c2ccccc12)C(=O)N[C@H](C(=O)N[C@@H](CCCCN)C(=O)N[C@@H](CCCNC(=N)N)C(=O)N[C@@H](CCCCN)C(=O)N[C@@H](CCCNC(=N)N)C(=O)N[C@@H](CCC(N)=O)C(=O)N[C@@H](CCC(N)=O)C(N)=O)[C@@H](C)CC)[C@@H](C)CC)[C@@H](C)O)[C@@H](C)O)C(C)C)C(C)C` [Melittin], the “hemolytic activity” value [1] is reported as “highly hemolytic” and the hemolysis at 5 µM (in vitro) is reported as over 80%.
